Where two headings read alike, the source gives them in different places.
Assay: Phase 1 MAD (Part B) plasma pharmacokinetics in healthy subjects
Type: in vivo, human
Conditions: for half-life: read-out: t1/2, mean (SD) (converted); for AUC: part B (MAD), 100 to 1000 mg BID
Protocol: The plasma PK parameters of the compound of formula (I) calculated following single (Part A) or multiple (Parts B) oral doses.
In each cohort, healthy subjects meeting eligibility criteria were sequentially randomized in a 3:1 ratio to receive either the compound of formula (I) or placebo BID, each morning and evening (approximately 12 hours following the morning dose) for 10 consecutive days of dosing, except for Day 10 where subjects were only received a morning dose. Subjects were dosed in an upright (i.e., seated or standing) position and remained upright for 5 minutes after dosing before a posture change for other study procedures, if applicable. Subjects fasted overnight for at least 9.5 hours prior to morning dose on Day 1 and Day 10. Subjects continued the fast for at least 4 hours post morning dose on these days. For all other morning doses and for all evening doses (i.e., Day 1 evening and Days 2 to 9), subjects were required to fast for at least 2 hours prior and for at least 2 hours following the dose.
PK sampling for the compound of formula (I) in plasma was taken Day 1 pre-morning dose and for 12 hours post-dose and Day 10 pre-morning dose and for 72 hours post Day 10 dose. Additional pre morning dose samples were taken on Days 2, 4, 6, and 8.
For all subjects, blood samples for the determination of plasma concentration of the compound of formula (I) were collected at scheduled time points. Blood samples were analyzed to calculate different plasma PK parameters in both part A and part B.
For all PK data analyses, the PK analysis set was used. Individual subject and mean plasma drug concentration versus time curves for the compound of formula (I) were presented for each dose group. Summary statistics (mean, standard deviation, coefficient of variation, median, minimum, maximum, geometric mean, geometric coefficient of variation, number of subjects) were calculated for plasma concentrations at each time point for each dose group, and the PK parameters for each dose group. Urine PK parameters were summarized for exploratory purposes.

[1] = plasma, Day 1, 100 mg BID, n = 6
[2] = plasma, Day 1, 300 mg BID, n = 6
[3] = plasma, Day 1, 1000 mg BID, n = 6
[4] = plasma, Day 10, 100 mg BID, n = 6
[5] = plasma, Day 10, 300 mg BID, n = 6

SMILES: CN(C)C/C=C/C(=O)N1CC(COc2cc(-c3ccc(O)cc3)cc3[nH]ncc23)C1 [compound of formula (I)]
- time to steady state (100 mg BID): 7 days
- Accumulation ratio (AUC0-12,ss/AUC0-12), Geometric mean (CV %) (100 mg BID, n = 6): 2.5 (35.2)
- Accumulation ratio (AUC0-12,ss/AUC0-12), Mean (SD) (100 mg BID, n = 6): 2.6 (0.78)
- time to steady state (300 mg BID): 3 days
- Accumulation ratio (AUC0-12,ss/AUC0-12), Geometric mean (CV %) (300 mg BID, n = 6): 2.3 (51.9)
- Accumulation ratio (AUC0-12,ss/AUC0-12), Mean (SD) (300 mg BID, n = 6): 2.5 (1.1)
- fold mean Cmax,ss below the protein-adjusted JAK3 IC50 (1000 mg BID): approximately 11 fold
- time to steady state (1000 mg BID): 3 days
- Accumulation ratio (AUC0-12,ss/AUC0-12), Geometric mean (CV %) (1000 mg BID, n = 6): 2.3 (92.5)
- Accumulation ratio (AUC0-12,ss/AUC0-12), Mean (SD) (1000 mg BID, n = 6): 2.9 (1.7)
- dose proportionality of exposure (AUC and Cmax) (after multiple-dose administration): dose proportionally
- Tmax (both sexes, human, oral, plasma, Day 10 (morning dose), 100 mg BID, n = 6, read-out: Tmax,ss, median (min, max)): 2 h
- half-life (both sexes, human, oral, plasma, Day 10 (morning dose), 100 mg BID, n = 6): 19.8 h
- Tmax (both sexes, human, oral, plasma, Day 10 (morning dose), 300 mg BID, n = 6, read-out: Tmax,ss, median (min, max)): 1 h
- half-life (both sexes, human, oral, plasma, Day 10 (morning dose), 300 mg BID, n = 6): 19.2 h
- Tmax (both sexes, human, oral, plasma, Day 10 (morning dose), 1000 mg BID, n = 6, read-out: Tmax,ss, median (min, max)): 1 h
- half-life (both sexes, human, oral, plasma, Day 10 (morning dose), 1000 mg BID, n = 6): 18.5 h
- AUC(0-t) (both sexes, human, plasma, oral, 100 mg, plasma, Day 1 (morning dose), 100 mg BID, n = 6, read-out: AUC0-12, mean (SD)): 0.0035 µg·h/mL
- AUC(0-t) (both sexes, human, plasma, oral, 100 mg, plasma, Day 10 (morning dose), 100 mg BID, n = 6, read-out: AUC0-12,ss, mean (SD)): 0.0089 µg·h/mL
- Cmax (both sexes, human, plasma, oral, 100 mg, plasma, Day 10 (morning dose), 100 mg BID, n = 6, read-out: Cmax,ss, mean (SD)): 1.7 ng/mL
- AUC(0-t) (both sexes, human, plasma, oral, 300 mg, plasma, Day 1 (morning dose), 300 mg BID, n = 6, read-out: AUC0-12, mean (SD)): 0.0085 µg·h/mL
- AUC(0-t) (both sexes, human, plasma, oral, 300 mg, plasma, Day 10 (morning dose), 300 mg BID, n = 6, read-out: AUC0-12,ss, mean (SD)): 0.0169 µg·h/mL
- Cmax (both sexes, human, plasma, oral, 300 mg, plasma, Day 10 (morning dose), 300 mg BID, n = 6, read-out: Cmax,ss, mean (SD)): 3.5 ng/mL
- AUC(0-t) (both sexes, human, plasma, oral, 1000 mg, plasma, Day 1 (morning dose), 1000 mg BID, n = 6, read-out: AUC0-12, mean (SD)): 0.0374 µg·h/mL
- AUC(0-t) (both sexes, human, plasma, oral, 1000 mg, plasma, Day 10 (morning dose), 1000 mg BID, n = 6, read-out: AUC0-12,ss, mean (SD)): 0.0621 µg·h/mL
- Cmax (both sexes, human, plasma, oral, 1000 mg, plasma, Day 10 (morning dose), 1000 mg BID, n = 6, read-out: Cmax,ss, mean (SD)): 13.3 ng/mL
- Tmax (human, oral, plasma, Day 1 (morning dose), 100 mg BID, n = 6, read-out: Tmax, median (min, max)): 1.5 h
- Tmax (human, oral, plasma, Day 1 (morning dose), 300 mg BID, n = 6, read-out: Tmax, median (min, max)): 1 h
- Tmax (human, oral, plasma, Day 1 (morning dose), 1000 mg BID, n = 6, read-out: Tmax, median (min, max)): 1.5 h
- Cmax (human, plasma, oral, 100 mg, plasma, Day 1 (morning dose), 100 mg BID, n = 6, read-out: Cmax, mean (SD)): 0.78 ng/mL
- Cmax (human, plasma, oral, 300 mg, plasma, Day 1 (morning dose), 300 mg BID, n = 6, read-out: Cmax, mean (SD)): 2.6 ng/mL
- Cmax (human, plasma, oral, 1000 mg, highest tested dose (1000 mg BID), read-out: mean Cmax,ss (maximum observed concentration at steady-state)): 13 ng/mL
- Cmax (human, plasma, oral, 1000 mg, plasma, Day 1 (morning dose), 1000 mg BID, n = 6, read-out: Cmax, mean (SD)): 10.7 ng/mL
- AUC (human, plasma, oral, read-out: AUCss0-12 in the plasma of the subjects (range)): 0.00543 to 0.0885 µg·h/mL
- AUC (human, plasma, oral, read-out: average AUCss0-12): 0.00894 to 0.0621 µg·h/mL
- concentration at 10 days (human, plasma, oral, multiple doses up to 1000 mg BID, read-out: Plasma concentrations): < 35 ng/mL
- Dose normalized AUC0-12/D, mean (SD) [1]: 0.035 (0.012) ng*hr/mL/mg
- Dose normalized Cmax/D, mean (SD) [1]: 0.0078 (0.0033) ng/mL/mg
- Dose normalized AUC0-12/D, mean (SD) [2]: 0.028 (0.016) ng*hr/mL/mg
- Dose normalized Cmax/D, mean (SD) [2]: 0.0086 (0.0079) ng/mL/mg
- Dose normalized AUC0-12/D, mean (SD) [3]: 0.037 (0.039) ng*hr/mL/mg
- Dose normalized Cmax/D, mean (SD) [3]: 0.011 (0.013) ng/mL/mg
- Dose normalized AUC0-12,ss/D, mean (SD) [4]: 0.089 (0.036) ng*hr/mL/mg
- Dose normalized Cmax,ss/D, mean (SD) [4]: 0.017 (0.0080) ng/mL/mg
- Dose normalized AUC0-12,ss/D, mean (SD) [5]: 0.056 (0.012) ng*hr/mL/mg
- Dose normalized Cmax,ss/D, mean (SD) [5]: 0.012 (0.0045) ng/mL/mg
- Dose normalized Cmax,ss/D, mean (SD) (plasma, Day 10, 1000 mg BID, n = 6): 0.013 (0.0084) ng/mL/mg

Source: patent publication US11471442B2, “Administration of gut-selective JAK3 inhibitor” (THERAVANCE BIOPHARMA R&D IP, LLC, priority 2020, dated 2022)
